The target in assay [1] is T1, RAF proto-oncogene serine/threonine-protein kinase (Homo sapiens, UniProt P04049). The assay can be described thus: Inhibition of CRAF (unknown origin) after 20 mins in presence of 33P-gamma-ATP by hotspot kinase assay.
In the next assay the test system is COLO 205. The assay is described as follows: Antiproliferative activity against human COLO205 cells after 72 hrs by CTG solution based luminescence assay. Format: functional, cell-based. The following applies: COLO 205, 72 h.
For assay [2], the target named is T2, Serine/threonine-protein kinase B-raf (Homo sapiens, UniProt P15056, V600E). The assay can be described thus: Inhibition of […] BRAF V600E mutant (AA416 to 766 residues (unknown origin) using full length His6-tagged MEK1 as substrate after 20 mins in presence of 33P-gamma-ATP by hotspot kinase assay.
T2 sequence (P15056 2-766 V600E limits assumed): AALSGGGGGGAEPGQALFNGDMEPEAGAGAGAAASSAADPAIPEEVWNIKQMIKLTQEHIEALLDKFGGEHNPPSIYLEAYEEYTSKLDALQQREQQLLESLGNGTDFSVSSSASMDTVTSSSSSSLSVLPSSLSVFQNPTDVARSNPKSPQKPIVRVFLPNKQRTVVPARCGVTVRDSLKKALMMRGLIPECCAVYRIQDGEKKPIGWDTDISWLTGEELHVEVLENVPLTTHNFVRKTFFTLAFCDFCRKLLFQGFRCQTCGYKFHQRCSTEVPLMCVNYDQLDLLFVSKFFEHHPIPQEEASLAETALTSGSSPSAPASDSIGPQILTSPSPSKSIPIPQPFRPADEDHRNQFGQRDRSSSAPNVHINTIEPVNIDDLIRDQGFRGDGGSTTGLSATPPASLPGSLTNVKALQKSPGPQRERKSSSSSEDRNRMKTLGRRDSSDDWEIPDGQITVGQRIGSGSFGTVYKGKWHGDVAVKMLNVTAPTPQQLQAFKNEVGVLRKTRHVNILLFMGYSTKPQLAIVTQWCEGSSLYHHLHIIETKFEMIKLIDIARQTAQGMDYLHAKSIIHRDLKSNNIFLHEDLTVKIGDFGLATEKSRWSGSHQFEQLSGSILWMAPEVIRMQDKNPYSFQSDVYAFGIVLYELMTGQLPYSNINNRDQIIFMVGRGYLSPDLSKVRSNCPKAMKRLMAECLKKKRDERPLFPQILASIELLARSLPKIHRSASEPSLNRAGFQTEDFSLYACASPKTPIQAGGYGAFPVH
Assay [3] has as its target T2, Serine/threonine-protein kinase B-raf. The assay can be described thus: Inhibition of BRAF V600E mutant (unknown origin).
The target in assay [4] is T3, Serine/threonine-protein kinase B-raf (Homo sapiens, UniProt P15056). The assay can be described thus: Inhibition of BRAF (unknown origin) using full length His6-tagged MEK1 as substrate after 20 mins in presence of 33P-gamma-ATP by hotspot kinase assay.
T3 sequence (P15056 whole entry): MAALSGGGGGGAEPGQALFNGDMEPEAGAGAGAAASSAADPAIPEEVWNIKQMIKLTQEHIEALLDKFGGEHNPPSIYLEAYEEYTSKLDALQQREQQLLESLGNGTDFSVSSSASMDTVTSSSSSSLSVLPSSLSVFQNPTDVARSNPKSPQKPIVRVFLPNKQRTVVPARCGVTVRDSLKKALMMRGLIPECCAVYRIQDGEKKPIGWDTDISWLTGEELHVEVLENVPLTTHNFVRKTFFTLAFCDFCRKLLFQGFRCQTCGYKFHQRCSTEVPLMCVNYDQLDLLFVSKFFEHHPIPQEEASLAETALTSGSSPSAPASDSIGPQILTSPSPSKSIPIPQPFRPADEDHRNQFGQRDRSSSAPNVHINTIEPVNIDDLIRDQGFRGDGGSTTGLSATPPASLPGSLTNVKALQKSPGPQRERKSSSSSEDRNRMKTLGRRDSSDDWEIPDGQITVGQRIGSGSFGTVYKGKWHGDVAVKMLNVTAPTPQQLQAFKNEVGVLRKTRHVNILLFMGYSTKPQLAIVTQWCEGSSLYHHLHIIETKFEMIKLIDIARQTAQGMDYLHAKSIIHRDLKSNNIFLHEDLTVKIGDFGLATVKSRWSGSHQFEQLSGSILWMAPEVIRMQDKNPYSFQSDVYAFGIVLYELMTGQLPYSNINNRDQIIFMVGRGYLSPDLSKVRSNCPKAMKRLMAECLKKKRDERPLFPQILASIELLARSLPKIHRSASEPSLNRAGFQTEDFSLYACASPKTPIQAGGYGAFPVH
The subject of assay [5] is A-375. The assay is described as follows: Antiproliferative activity against human A375 cells after 72 hrs by CTG solution based luminescence assay. Format: functional, cell-based. As to conditions: A-375, 72 h.
The next assay has as its system SK-MEL-2. The assay is described as follows: Antiproliferative activity against human SK-MEL-2 cells after 72 hrs by CTG solution based luminescence assay. Format: functional, cell-based. As to conditions: SK-MEL-2, 72 h.
Assay [6] has as its target T4, Serine/threonine-protein kinase A-Raf (Homo sapiens, UniProt P10398).
T4 sequence (P10398 whole entry): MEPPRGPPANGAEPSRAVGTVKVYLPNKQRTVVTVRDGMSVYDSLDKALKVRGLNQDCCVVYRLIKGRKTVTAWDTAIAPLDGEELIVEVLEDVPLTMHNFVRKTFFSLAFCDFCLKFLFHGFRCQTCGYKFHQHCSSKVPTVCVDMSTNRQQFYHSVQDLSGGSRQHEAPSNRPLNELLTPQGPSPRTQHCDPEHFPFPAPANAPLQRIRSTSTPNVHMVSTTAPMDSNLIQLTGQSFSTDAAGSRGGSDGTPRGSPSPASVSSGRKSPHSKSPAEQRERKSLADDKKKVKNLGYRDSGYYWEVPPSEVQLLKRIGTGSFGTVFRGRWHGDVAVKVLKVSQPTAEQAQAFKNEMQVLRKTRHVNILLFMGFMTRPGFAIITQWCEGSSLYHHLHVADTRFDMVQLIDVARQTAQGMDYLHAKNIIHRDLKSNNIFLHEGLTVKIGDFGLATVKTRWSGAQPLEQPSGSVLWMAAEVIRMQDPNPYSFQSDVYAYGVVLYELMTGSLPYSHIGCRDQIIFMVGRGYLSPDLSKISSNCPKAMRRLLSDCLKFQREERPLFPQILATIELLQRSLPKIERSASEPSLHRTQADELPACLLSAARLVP
The assay is described as follows: Inhibition of ARAF (unknown origin) after 20 mins in presence of 33P-gamma-ATP by hotspot kinase.

A further assay concerns HepG2. The assay can be described thus: Antiproliferative activity against human HepG2 cells. Format: functional, cell-based.
Assay [7] concerns A-375. The assay is described as follows: Antiproliferative activity against human A375 cells. The format is functional, cell-based.
The next assay deals with MX1. The assay is described as follows: Antiproliferative activity against human MX1 cells. Format: functional, cell-based.
A further assay concerns HT-29. The assay is described as follows: Antiproliferative activity against human HT-29 cells. Format: functional, cell-based.
The next assay relates to KETR3. The assay is described as follows: Antiproliferative activity against human Ketr3 cells. Format: functional, cell-based.
In a further assay the test system is HCT-116. The assay can be described thus: Antiproliferative activity against human HCT116 cells. Format: functional, cell-based.
The test system of the next assay is MKN-45. The assay is described as follows: Antiproliferative activity against human MKN45 cells. Format: functional, cell-based.
The next assay deals with NCI-H460. The assay can be described thus: Antiproliferative activity against human NCI-H460 cells. Format: functional, cell-based.
The target in assay [8] is T3, Serine/threonine-protein kinase B-raf. The assay is described as follows: Inhibition of BRAF (unknown origin).
The subject of the next assay is UO-31. The assay is described as follows: Antiproliferative activity against human UO31 cells. The format is functional, cell-based.
Another assay concerns MCF7. The assay is described as follows: Antiproliferative activity against human MCF7 cells. The format is functional, cell-based.
Assay [9] concerns the target T1, RAF proto-oncogene serine/threonine-protein kinase. The assay can be described thus: Inhibition of CRAF (unknown origin).
For assay [10], the target named is T4, Serine/threonine-protein kinase A-Raf. The assay is described as follows: Inhibition of ARAF (unknown origin).

Bounds are passed on as bounds.

T1 sequence (P04049 whole entry): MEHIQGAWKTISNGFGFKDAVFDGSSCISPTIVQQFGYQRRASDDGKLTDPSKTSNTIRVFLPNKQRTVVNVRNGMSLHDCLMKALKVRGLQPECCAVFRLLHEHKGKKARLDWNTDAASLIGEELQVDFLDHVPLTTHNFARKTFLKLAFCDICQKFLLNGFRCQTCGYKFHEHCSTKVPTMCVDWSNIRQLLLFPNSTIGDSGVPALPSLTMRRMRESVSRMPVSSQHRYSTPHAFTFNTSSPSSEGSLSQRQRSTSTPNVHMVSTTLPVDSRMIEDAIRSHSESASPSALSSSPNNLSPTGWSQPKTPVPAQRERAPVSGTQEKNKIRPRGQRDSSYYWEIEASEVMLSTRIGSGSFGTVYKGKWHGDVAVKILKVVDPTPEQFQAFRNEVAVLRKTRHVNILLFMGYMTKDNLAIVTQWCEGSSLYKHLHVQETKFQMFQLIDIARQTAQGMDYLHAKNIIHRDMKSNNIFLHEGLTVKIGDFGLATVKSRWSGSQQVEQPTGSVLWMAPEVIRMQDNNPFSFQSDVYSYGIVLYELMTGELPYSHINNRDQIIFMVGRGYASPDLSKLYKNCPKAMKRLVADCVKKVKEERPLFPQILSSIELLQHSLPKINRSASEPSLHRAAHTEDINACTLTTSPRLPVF

On to `Cc1ccc(C(=O)Nc2ccc(C(F)(F)F)c(Cl)c2)cc1NC(=O)C1(c2ccnc(NCCN3CCN(C)CC3)n2)CC1`, for which the IC50 turned out to be 17.5 nM in [1]; 1920 nM with COLO 205; 12.6 nM in [2]; 12.6 nM in assay [3]; 19.7 nM in assay [4]; 1070 nM in the assay with A-375 [5]. The IC50 in the assay with SK-MEL-2 is less than 400 nM; in assay [6], 30.1 nM.

As to `CNC(=O)c1cc(Oc2ccc(NC(=O)Nc3ccc(Cl)c(C(F)(F)F)c3)cc2)ccn1` [SORAFENIB], the 50% inhibitory concentration (IC50) in the assay with HepG2 was in the range of 8270 to 18800 nM; with A-375 [7], 8270 to 18800 nM; with MX1 it was 8270 to 18800 nM; in the assay on HT-29 it was 3610 to 18800 nM; in the assay with KETR3, 8270 to 18800 nM.

Consider `COc1cc2c(cnc3[nH]nc(C4CC4)c32)cc1-c1c(F)ccc(NS(=O)(=O)CCCF)c1F`, for which the half-inhibitory concentration (IC50) in the assay on A-375 [7] amounted to 13 nM; in assay [3], 7 nM.

As for `CNc1cc2c(cn1)cc(-c1ccc(F)c(NC(=O)Nc3cc(C(C)(C)C)no3)c1)c(=O)n2C1CCOC1` (stereo unspecified), the half-inhibitory concentration (IC50) turned out to be 6 nM with A-375 [7], 1000 nM in assay [3] and 32 nM in the assay on HCT-116.

For the compound `CN(C)CCn1cnnc1-c1cc(Oc2ccc(NC(=O)N/N=C/c3cccc(Cl)c3Cl)cc2F)ccn1`, the half-inhibitory concentration (IC50) came to 50 nM in the assay with MKN-45 and 70 nM with NCI-H460.

`O=S(=O)(c1ccc(F)cc1)N1CCCC(Nc2nccc(-c3c(-c4ccc(F)cc4)nc4sccn34)n2)C1` (stereo unspecified): the midpoint of inhibition in assay [3], the IC50, lay at 23 nM.

`CNC(=O)c1cc(Cn2cc(F)c3cc(NC(=O)Nc4ccc(Cl)c(C(F)(F)F)c4)ccc32)ccn1` returned an IC50 in assay [8] of 1360 nM.

As to `O=C(NCCNc1nccc(-c2c(-c3ccc(F)cc3)nc3sccn23)n1)Nc1ccccc1`, the IC50 in the assay with UO-31 turned out to be 2940 nM; in the assay on MCF7, 3730 nM.

For `CC(NC(=O)c1cccc(-c2ccc(NC(=O)Nc3ccc(C(F)(F)F)c(Cl)c3)cc2)c1)c1ccccc1` (stereo unspecified), the IC50 was 5170 to 6460 nM in the assay on HepG2; 5170 nM in the assay on A-375 [7]; 5170 to 6460 nM with MX1; 5170 to 6460 nM in the assay on HT-29; 5170 to 6460 nM in the assay on KETR3.

In the assay with MX1, `CC(NC(=O)c1ccc(-c2ccc(NC(=O)Nc3ccc(C(F)(F)F)c(Cl)c3)cc2)cc1)c1ccccc1` (stereo unspecified) showed an IC50 of 4630 nM.

With `O=S(=O)(NCCNc1nccc(-c2c(-c3ccc(F)cc3)nc3sccn23)n1)c1ccc(O)cc1`, the figures for the IC50 in assay [3] and in [9] were 19 nM and 40 nM, respectively.

On to `O=C(NCCNc1nccc(-c2c(-c3ccc(F)cc3)nc3sccn23)n1)c1ccccc1`, for which the IC50 came to 1750 nM in the assay on UO-31 and 1430 nM in the assay with MCF7.

Turning to `COc1ccc(C(=O)NCCNc2nccc(-c3c(-c4ccc(F)cc4)nc4sccn34)n2)cc1`, the IC50 turned out to be 1420 nM in the assay with UO-31 and 2000 nM with MCF7.

Regarding `Cc1ccc(C(=O)Nc2ccc(C(F)(F)F)c(Cl)c2)cc1NC(=O)C1(c2cc(NCCCN3CCN(C)CC3)ncn2)CC1`, the IC50 is 1.4 to 12.2 nM in assay [3], 13.3 nM in [9], 29.7 nM in assay [8] and 25.3 nM in assay [10].

`CNC(=O)c1cc(Cn2ccc3cc(NC(=O)Nc4ccc(Cl)c(C(F)(F)F)c4)ccc32)ccn1` came in with an IC50 in assay [8] of 510 nM.

These data come from ChEMBL document CHEMBL4270647, “Recent advances of RAF (rapidly accelerated fibrosarcoma) inhibitors as anti-cancer agents” (Eur J Med Chem, 2018).
